Reference: patent publication US9913789B2, “Formulations containing sphinganine” (Evonik Degussa GmbH, priority 2013, dated 2018)

What was measured:
[1] = tested on: human follicular dermal papilla cells (HFDPCs); experiment: MTT assay, stimulation of proliferation of human follicular dermal papilla cells; type: cell-based; conditions: sphinganine 0.3 μg/ml; creatine 10 μg/ml; caffeine 10 μg/ml; 0.1% (v/v) ethanol; incubation 24 hours
Procedure: The cells were sown in a cell density of about 6300 cells/cm^2 in a T75 bottle with follicle dermal papilla cell growth medium (for short: growth medium) and then incubated at 37° C., 5% CO2. After 1 day, media exchange was carried out. After a further 3 days, the medium was removed, the cells were washed with PBS (phosphate buffered saline) (without Mg^2+ and Ca^2+), detached by accutase treatment; the cell count is determined and then the cells are sown in a concentration of about 5500 cells/cm^2 in new T75 bottles in growth medium and further cultivated under identical conditions as described above. After 1 and 3 days, media exchange was carried out. After 1 further day, the medium was removed, the cells were washed in PBS (without Mg^2+ and Ca^2+), detached by accutase treatment and then sown in a concentration of about 10 000 cells/cm^2 into the cavities of 6-well cell culture plates with 2.5 ml of growth medium in each case. After 1 day, media exchange was carried out, and the test substances—diluted in fresh medium—were applied. […] All cultivations were carried out in the presence of 0.1% (v/v) ethanol and a corresponding vehicle control was performed at the same time. After incubation for 24 hours, an MTT assay was carried out. The activity in the MTT test indicates the activity of the mitochondrial dehydrogenase and is a marker for the cell vitality and the proliferation capacity. Firstly, a 10 mg/ml stock solution of the MTT reagent (Thiazolyl Blue Tetrazolium Bromide, Sigma Aldrich M5655) in PBS was prepared. The stock solution was then diluted with growth medium to an end concentration of 1 mg/ml MTT reagent. The cells were washed with PBS (without Mg^2+ and Ca^2+) and incubated with 1 ml of growth medium with MTT reagent for 3 h at 37° C. […] The absorption of the extracts was determined by spectrophotometry at a wavelength of 550 nm. The optical density of the extracts from the cells treated only with the vehicle is regarded as the reference (100%), all of the other measured values are quantified relative to the reference sample.

ex vivo hair follicles = ex vivo hair follicles kept in culture; EP0790053; cited from earlier work
[2] = tested on: in vitro cultivated keratinocytes; conditions: EP0790053; cited from earlier work

SMILES | cell proliferation (MTT, optical density at 550 nm relative to vehicle control = 100%) [1] [%] | lifespan of the hair follicles (ex vivo hair follicles) | effect on growth of keratinocytes [2]
Cn1c(=O)c2c(ncn2C)n(C)c1=O [caffeine] | 102.5 |  | 
CN(CC(=O)O)C(=N)N [creatine] | 104.0 |  | 
CCCCCCCCCCCCCCC[C@@H](O)[C@@H](N)CO [sphinganine] | 103.9 | increases the lifespan of the hair follicles | growth-promoting effect
